Experimental data: patent US20120316157A1, “PLANT DISEASE CONTROLLING COMPOSITION AND METHOD FOR CONTROLLING PLANT DISEASE” (SUMITOMO CHEMICAL COMPANY, LIMITED, priority 2010, published 2012)
Like-named read-outs stand apart in the source and are kept apart here.

Tested on: gray mold fungus (Botrytis cinerea)
Assay: Cucumber leaf disk preventive test against gray mold fungus (Test Examples 1, 2 and Reference Example)
Format: in vivo
Protocol: True leaf of cucumber is punched out with cork borer to 13 mm in diameter to prepare a leaf disk. In 24 well microwell plate that is dispensed with 1 ml 0.8% water agar, the leaf disk is placed such that the upper side of the leaf is in an upward direction. Thereto is added 20 micro liter a testing solution prepared by mixing a dimethyl sulfoxide solution of the present compound (racemate) and a dimethyl sulfoxide solution of ferimzone or oxolinic acid to a predetermined concentration to treat the leaf disk.
After confirming that the testing medical solution is dried, conidium of gray mold fungus (Botrytis cinerea) is suspended into potato dextrose broth (DIFCO) in a density of about 10^5 conidium/mL and is then subjected to a spray inoculation. After leaving to stand the leaf disk in a growth chamber set up at 15° C. for four days, an onset area on the leaf is measured and then calculated an onset area rate (hereinafter, referred to as an onset area rate of treated group).
The same operation is carried out with 20 micro liter water instead of 20 micro liter a testing medicine solution to calculate an onset area rate (hereinafter, referred to an onset area rate of non-treated group).
A preventive value is calculated from the above onset area rate of treated group and the onset area rate of non-treated group by the following equation:
Preventive value(%)=100×(A−B)/A
A: an onset area rate of treated group
B: an onset area rate of non-treated group
The same operations as described in Test Example 1 are carried out with fenamidone, acibenzolar-5-methyl, amisulbrom, dazomet, diclomezine, famoxadone, fenoxanil, probenazole, proquinazid, pyroquilon, quinoxyfen, tricyclazole, isoprothiolane or tiadinil instead of ferimzone or oxolinic acid, so as to calculate respective preventive values.
Also for comparison, the same operations as described in Test Example 1 are carried out with the exception that the testing medicine solution is substituted with a predetermined concentration of each dimethyl sulfoxide solution of the present compound (racemate), fenamidone, acibenzolar-5-methyl, amisulbrom, dazomet, diclomezine, famoxadone, fenoxanil, probenazole, proquinazid, pyroquilon, quinoxyfen, tricyclazole, isoprothiolane, or tiadinil, so as to calculate respective preventive values.
For comparison, the same operations as described in Test Example 1 are carried out with the exception that the testing medicine solution is substituted with a predetermined concentration of each dimethyl sulfoxide solution of ferimzone or oxolinic acid, so as to calculate a preventive value.

[1] = heterocyclic compound alone, 0.5 ppm, 15° C., four days
[2] = heterocyclic compound alone, 5.0 ppm, 15° C., four days
[3] = Botrytis cinerea, foliar, 96 h, read-out: preventive value (%), heterocyclic compound alone, 0.5 ppm, 15° C., four days
[4] = Botrytis cinerea, foliar, 96 h, read-out: preventive value (%), heterocyclic compound alone, 5.0 ppm, 15° C., four days
[5] = Botrytis cinerea, foliar, 96 h, heterocyclic compound alone, 0.5 ppm, 15° C., four days, read-out: preventive value (%)
[6] = Botrytis cinerea, foliar, 96 h, heterocyclic compound alone, 5.0 ppm, 15° C., four days, read-out: preventive value (%)

Question: With `Cc1c(Br)c2ccc(F)cc2n1S(=O)(=O)c1ncn(S(=O)(=O)N(C)C)n1` [amisulbrom] as the molecule, how does the “preventive value (%)” value [1] read?
Answer: The value was 10%.

Question: What about the “preventive value (%)” value [2] of the same molecule?
Answer: Its value is 15%.

Question: How did the pest or weed control at 0.5 ppm [3] turn out when `CN1CSC(=S)N(C)C1` [dazomet] was run?
Answer: Its pest or weed control at 0.5 ppm is 10%.

Question: What about the pest or weed control at 5 ppm [4] of the same molecule?
Answer: Its pest or weed control at 5 ppm is 20%.

Question: What does the source list for `CCCOc1nc2ccc(I)cc2c(=O)n1CCC` [proquinazid]?
Answer: preventive value (%) [1]: 10%; preventive value (%) [2]: 15%

Question: For `C/C(=N/Nc1nc(C)cc(C)n1)c1ccccc1C` [ferimzone], which pest or weed control at 0.5 ppm [3] is on record?
Answer: The pest or weed control at 0.5 ppm was 10%.

Question: And the pest or weed control at 5 ppm [4]?
Answer: The pest or weed control at 5 ppm was 15%.

Question: How did the pest or weed control at 0.5 ppm [5] turn out when `Cc1c(Cl)cc(-c2ccc(=O)[nH]n2)cc1Cl` [diclomezine] was run?
Answer: Its pest or weed control at 0.5 ppm is 10%.

Question: What about the pest or weed control at 5 ppm [6] of the same molecule?
Answer: Its pest or weed control at 5 ppm is 15%.

Question: What does the source list for `Fc1ccc(Oc2ccnc3cc(Cl)cc(Cl)c23)cc1` [quinoxyfen]?
Answer: pest or weed control at 0.5 ppm [5]: 10%; pest or weed control at 5 ppm [6]: 15%

Question: With `Cc1ccc(NC(=O)c2snnc2C)cc1Cl` [tiadinil] as the molecule, how does the pest or weed control at 0.5 ppm [5] read?
Answer: The pest or weed control at 0.5 ppm was 10%.

Question: And the pest or weed control at 5 ppm [6]?
Answer: Its pest or weed control at 5 ppm is 25%.

Question: For `CC(Oc1ccc(Cl)cc1Cl)C(=O)NC(C)(C#N)C(C)C` (centres unmarked) [fenoxanil], which “preventive value (%)” value [1] is on record?
Answer: The value was 10%.

Question: And the “preventive value (%)” value [2]?
Answer: Its value is 15%.

Question: With `O=C1CCc2cccc3c2N1CC3` [pyroquilon] as the molecule, how does the pest or weed control at 0.5 ppm [3] read?
Answer: The pest or weed control at 0.5 ppm was 10%.

Question: What about the pest or weed control at 5 ppm [4] of the same molecule?
Answer: The pest or weed control at 5 ppm was 15%.

Question: For `CSC1=N[C@@](C)(c2ccccc2)C(=O)N1Nc1ccccc1` [fenamidone], which pest or weed control at 0.5 ppm [5] is on record?
Answer: The pest or weed control at 0.5 ppm was 5%.

Question: What about the pest or weed control at 5 ppm [6] of the same molecule?
Answer: Its pest or weed control at 5 ppm is 10%.

Question: Which pest or weed control at 1 ppm (Botrytis cinerea, foliar, 96 h, the present amide compound alone, 1.0 ppm, 15° C., four days) does the source give for `CNC(=O)C(OC)c1ccccc1COc1cc(C)ccc1C` (racemic) [the present amide compound] here?
Answer: The pest or weed control at 1 ppm was 46%.

Question: What about the pest or weed control at 2.5 ppm (Botrytis cinerea, foliar, 96 h, the present amide compound alone, 2.5 ppm, 15° C., four days) of the same molecule?
Answer: Its pest or weed control at 2.5 ppm is 56%.

Question: What does the source list for `C[C@@]1(c2ccc(Oc3ccccc3)cc2)OC(=O)N(Nc2ccccc2)C1=O` (racemic) [famoxadone]?
Answer: pest or weed control at 0.5 ppm [5]: 10%; pest or weed control at 5 ppm [6]: 15%

Question: For `C=CCOC1=NS(=O)(=O)c2ccccc21` [probenazole], which pest or weed control at 0.5 ppm [5] is on record?
Answer: Its pest or weed control at 0.5 ppm is 10%.

Question: What about the pest or weed control at 5 ppm [6] of the same molecule?
Answer: The pest or weed control at 5 ppm was 25%.

Question: What does the source list for `Cc1cccc2sc3nncn3c12` [tricyclazole]?
Answer: pest or weed control at 0.5 ppm [5]: 10%; pest or weed control at 5 ppm [6]: 15%

Question: How did the “preventive value (%)” value [1] turn out when `CSC(=O)c1cccc2nnsc12` [acibenzolar-S-methyl] was run?
Answer: The value was 15%.

Question: What about the “preventive value (%)” value [2] of the same molecule?
Answer: The value was 25%.

Question: Which pest or weed control at 0.5 ppm [3] does the source give for `CC(C)OC(=O)C(C(=O)OC(C)C)=C1SCCS1` [isoprothiolane] here?
Answer: The pest or weed control at 0.5 ppm was 10%.

Question: And the pest or weed control at 5 ppm [4]?
Answer: Its pest or weed control at 5 ppm is 15%.
